Results: patent US20210308138A1, “TISSUE TRANSGLUTAMINASE MODULATORS FOR MEDICINAL USE” (Aarhus Universitet, priority 2018, published 2021)

Tests used:
[1] = Pharmacokinetic study, single intravenous dose, non-compartmental model; type: in vivo; conditions: mouse, blood, single 2 mg/kg intravenous dose, mice
[2] = test system: small subcutaneous arteries obtained from human biopsies; assay: Acetylcholine-induced relaxation of human small subcutaneous arteries; conditions: LDN-27219 3·10^−6 mol/L; acetylcholine 10^−8-10^−5 mol/L
Method: Human subcutaneous arteries were obtained from fat biopsies of the gluteal region from both male and female patients (30-70 years of age) with essential hypertension.
For ‘ex vivo’ studies, animals were randomly selected and euthanized by cervical dislocation and exanguination. The mesenteric arteries were immediately extracted and placed in 4° C. physiological saline solution (PSS, pH=7.4) of the following composition (mmol/L): 119 NaCl, 4.7 KCl, 1.18 KH2PO4, 1.17 MgSO4, 1.5 CaCl2), 24.9 NaHCO3, 0.026 EDTA and 5.5 glucose and small mesenteric arteries (internal diameters of 200-300 μm) were isolated. Human subcutaneous arteries (internal diameters of 300-400 μm) were dissected from the biopsies in the same conditions mentioned above for the mesenteric bed from rodents.
Small human subcutaneous arteries were obtained from fat biopsies from the gluteal region of hypertensive patients and prepared as described in Example 1. Concentration-response curves for LDN-27219 were constructed as described in Example 4 (FIG. 5B) and relaxation measurements were performed as described in Example 1.

[3] = test system: small mesenteric arteries; assay: Direct relaxation of U46619 pre-contracted small mesenteric arteries, concentration-response curves; parameters: species or system Male Wistar rats
Method: The small mesenteric arteries were prepared in the same way is described in example 1.
The small mesenteric arteries were pre-contracted with the thromboxane analogue, U46619 (4·10^−7 mol/L) and concentration-response curves for TG2 specific inhibitors, LDN-27219 (10^−8-10^−5 mol/L) and Z-DON (10^−8-3·10^−4 mol/L) were constructed. To study the role of the endothelial pathways in LDN-27219 relaxation, concentration-response curves were constructed for it in arteries whose endothelium had been removed mechanically by rubbing the lumen repeatedly with a human scalp hair.

[4] = test system: healthy male BKS(D)-Leprdb/JOrlRj heterozygous mice; assay: Erectile function in vivo, peak intracavernosal pressure (PICP) over MAP; conditions: preliminary in vivo studies
[5] = test system: vascular smooth muscle cells (VSMCs) potassium currents; assay: Whole-cell patch-clamp of K+ outward currents in isolated vascular smooth muscle cells; type: cell-based, rat; conditions: LDN-27219 3·10^−5 mol/L 12 min; VA-5 5·10^−5 mol/L one hour incubation
Method: For isolation of VSMCs, rat mesenteric arteries were dissected as previously described, opened longitudinally and stored in ice-cold dissociation solution containing (mmol/L): 119 NaCl, 4.7 KCl, 1.18 KH2PO4, 1.17 MgSO4, 24.9 NaHCO3, 0.027 EDTA, and 11 glucose, pH=7.4. Arteries were then equilibrated during 10 min in a dissociation solution with bovine albumin serum (BSA; 1 mg/mL) at 37° C. and then exposed to the same solution supplemented with papain (0.5 mg/mL; Worthington Biochemical Corp., Lakewood, N.J., USA) and dithiothreitol (DTT; 1 mg/mL) at 37° C. for 8 min. Arteries were then washed in ice-cold dissociation solution and moved to dissociation solution containing BSA (1 mg/mL) and collagenase (0.7 mg/mL type F and 0.4 mg/mL type H; Worthington Biochemical Corp.) at 37° C. for 3 min. […]
Membrane currents were recorded under the whole-cell configuration of the patch-clamp technique using an Axon Multiclamp 700A amplifier (Axon instruments, Molecular Devices, CA, USA). […] Current-voltage relations were determined using 600 ms voltage ramps from −100 to 160 mV and a holding potential (Vh) of −65 mV for SMCs.
Amplitudes of K^+-outward currents were measured in control conditions and 12 min after the addition of LDN-27219 (3·10^−5 mol/L) to the extracellular solution by a perfusion system.

Question: Which clearance [1] does the source give for `NNC(=O)CSc1nc2scc(-c3ccccc3)c2c(=O)n1-c1ccccc1` [LDN-27219] here?
Answer: Its clearance is 52.3 mL/min/kg.

Question: What about the half-life [1] of the same compound?
Answer: Its half-life is 4.89 h.

Question: And the Vd ([1]; read-out: Volume of distribution)?
Answer: The Vd was 21.4 L/kg.

Question: What about the “endothelium-derived relaxation induced by acetylcholine, compared to vehicle” value [2] of the same compound?
Answer: Its value is “improves the endothelium-derived relaxation”.

Question: What about the “relaxation of U46619 pre-contracted arteries” value ([3]; U46619 4·10^−7 mol/L, LDN-27219 10^−8-10^−5 mol/L, Z-DON 10^−8-3·10^−4 mol/L, endothelium intact) of the same compound?
Answer: Its value is “induced relaxation”.

Question: What about the “relaxation of U46619 pre-contracted arteries without an endothelium layer” value ([3]; endothelium removed mechanically) of the same compound?
Answer: Its value is “significantly reduced relaxation”.

Question: What about the “erectile function, peak intracavernosal pressure (PICP) over MAP” value [4] of the same compound?
Answer: The value was “increased erectile function”.

Question: What about the “potassium currents compared to control conditions” value [5] of the same compound?
Answer: The value was “potassium currents significantly bigger”.
